Marks after values point to notes of the source that are not given here. Peptide text beside a SMILES is read from it.
Test system: scalp of dandruff and non-dandruff subjects
Assay: Metabolite expression profiling (LC/MS/MS, GC/MS/MS) of scalp D-Squame tape strip extracts: non-dandruff, dandruff baseline, dandruff after 3 weeks anti-dandruff shampoo
Assay type: in vivo, human
Details: for Fold Change Wk 3 Sel vs Dandruff Baseline / Fold Change Wk 3 ZPT vs Dandruff Baseline / Fold Change Wk 3 ZPT vs Non-Dan Baseline / Fold Change Wk 3 Sel vs Non-Dan Baseline: metabolite level in scalp tape strips; for Fold Change Wk 3 Sel vs Dandruff Baseline / Fold Change Wk 3 ZPT vs Dandruff Baseline: standardized to soluble protein; for Fold Change Wk 3 Sel vs Dandruff Baseline: dandruff subjects after 3 weeks 1% selenium sulfide shampoo vs own baseline; for Fold Change Wk 3 ZPT vs Dandruff Baseline: dandruff subjects after 3 weeks 1% zinc pyrithione shampoo vs own baseline; for Fold Change Wk 3 ZPT vs Non-Dan Baseline: dandruff subjects after 3 weeks 1% ZPT shampoo vs non-dandruff subjects; for Fold Change Wk 3 Sel vs Non-Dan Baseline: dandruff subjects after 3 weeks 1% selenium sulfide shampoo vs non-dandruff subjects; for reduction / decrease of metabolite level vs dandruff baseline: after three weeks ZPT shampoo; for decrease of metabolite level vs dandruff baseline: after three weeks selenium sulfide shampoo
Source text: In an embodiment, the use of an adhesive device can be used to achieve such sampling. In preparation for such a sampling study for a dandruff sampling, at a baseline visit, a qualified screening grader will complete adherent scalp flaking score (ASFS) grading for each subject and the highest flaking octant will be identified for tape strip sampling. The highest flaking octant will be sampled at baseline and at various time points during and after treatment with product. Tape strips samples will be collected from each subject at each time point (e.g., baseline and week 3).
The tape strip sampling procedure is repeated additional times, as needed, at the same site placing each D-Squame® tape disc on top of the prior sampled area. The D-Squame® tapes after sample collection are placed into the appropriately labeled wells in a labeled plate.
Following the sampling, an extraction and quantitation procedure is conducted. In an embodiment of the present invention, quantitation of small molecules from extracts of D-Squame® Tape Samples can be conducted via analysis by either LC/MS/MS or GC/MS/MS. In this embodiment of the present invention, the sample extraction in preparation for Metabolite expression profiling technology was performed.
The D-Squame® tape sample plates are removed from −80° C. freezer where they are stored following sample collection, and placed on dry ice. The tape strips are inserted into pre-labeled polypropylene collection tubes, adhesive side facing inward. Extraction buffer containing methanol and water is added to each collection tube and then extracted on ice using sonication for 15 min. If necessary, additional tapes are placed in the collection tube containing the extract solution and the extraction process is repeated as a means of concentrating the sample. Each extract solution is isolated from the tape strip and an aliquot of each sample is placed into a pre-labeled polypropylene collection tubes and frozen at −80° C. for metabolite expression profiling analysis. A separate aliquot is specified for soluble protein analysis using a BCA™ Protein Assay Kit. For this analysis, the aliquot consisting of methanol and water is taken to dryness under a gentle stream of nitrogen. The sample is resuspended in an appropriate aqueous buffer (e.g., PBS/SDS (1× PBS+0.2% SDS) and analyzed for soluble protein.
The extracts are analyzed by GC/MS/MS and LC/MS/MS in positive and negative ion mode. Chromatographic separation followed by full scan mass spectra and MS/MS spectra is carried out to record and quantify all detectable ions present in the samples. Metabolites with known chemical structure can be identified by matching the ions' chromatographic retention index and mass spectra fragmentation signatures with reference library entries created from authentic standard metabolites under the identical analytical procedure as the experimental samples. Welch's Two Sample t-tests and matched-pair t-tests are used to analyze the data. […] The statistical analyses are performed on natural log-transformed data to reduce the effect of any potential outliers in the data. Welch's Two Sample t-test comparisons are made between the means of each biochemical from the various groups listed at the top of the tables and are calculated using either or both of the statistical analysis software programs: Array Studio (Omicsoft, Inc) or “R” from the Free Software Foundation, Inc.
Subjects are evaluated by a qualified grader to establish their scalp status. Dandruff subjects are identified by their level of visible flaking as assessed by a qualified grader. Non-dandruff healthy scalp subjects are evaluated at baseline to establish normalized levels of each biomarker. In this study, there are 60 non-dandruff subjects that are evaluated at baseline. […] They are evaluated at baseline, and after 3 weeks of product usage.

[1] = dandruff subjects after 3 weeks treatment with Sel shampoo, metabolite level in scalp tape strip extract
[2] = dandruff subjects after 3 weeks treatment with ZPT shampoo, metabolite level in scalp tape strip extract
[3] = relative metabolite level in scalp tape strips, dandruff subjects after 3 weeks 1% ZPT shampoo
[4] = relative metabolite level in scalp tape strips, dandruff subjects after 3 weeks 1% selenium sulfide shampoo

**Q.** What does the source list for `CCCCCCCCCCCCCCCCCCCC(=O)O` [arachidate (20:0), arachidate]?
**A.** Mean Values WEEK 3 TRT Sel [1]: 0.6154; Mean Values WEEK 3 TRT ZPT [2]: 0.7662; Fold Change Wk 3 Sel vs Dandruff Baseline: 0.42* fold; Fold Change Wk 3 ZPT vs Dandruff Baseline: 0.55* fold; Fold Change Wk 3 ZPT vs Non-Dan Baseline: 0.56*** fold; Fold Change Wk 3 Sel vs Non-Dan Baseline: 0.45*** fold

**Q.** With `CCCCC/C=C\C/C=C\C/C=C\C/C=C\CCCC(=O)O` [arachidonate (20:4n6), arachidonate] as the compound, how does the “reduction / decrease of metabolite level vs dandruff baseline” value read?
**A.** 44%

**Q.** What about the “decrease of metabolite level vs dandruff baseline” value of the same compound?
**A.** 70%

**Q.** Which results are given for `CCCCCCCCCCCCCCCCCCCCCC(=O)O` [behenate (22:0), behenate]?
**A.** Fold Change Wk 3 Sel vs Dandruff Baseline: 0.84 fold; Fold Change Wk 3 ZPT vs Dandruff Baseline: 0.47 fold; Fold Change Wk 3 ZPT vs Non-Dan Baseline: 0.34* fold; Fold Change Wk 3 Sel vs Non-Dan Baseline: 0.57*** fold

**Q.** For `O=C(O)/C=C\c1cnc[nH]1` [cis-urocanate], which “Fold Change Wk 3 Sel vs Dandruff Baseline” value is on record?
**A.** 1.22 fold

**Q.** What about the “Fold Change Wk 3 ZPT vs Dandruff Baseline” value of the same compound?
**A.** 1.19 fold

**Q.** What about the “Fold Change Wk 3 ZPT vs Non-Dan Baseline” value of the same compound?
**A.** 0.91 fold

**Q.** What about the “Fold Change Wk 3 Sel vs Non-Dan Baseline” value of the same compound?
**A.** 0.99 fold

**Q.** With `CCCCC/C=C\C/C=C\CCCCCCCCCC(=O)O` [dihomo-linoleate (20:2n6), dihomo-linoleate] as the compound, how does the “Mean Values WEEK 3 TRT Sel” value [1] read?
**A.** 0.214

**Q.** And the “Mean Values WEEK 3 TRT ZPT” value [2]?
**A.** 0.3984

**Q.** And the “Fold Change Wk 3 Sel vs Dandruff Baseline” value?
**A.** 0.15* fold

**Q.** What about the “Fold Change Wk 3 ZPT vs Dandruff Baseline” value of the same compound?
**A.** 0.3* fold

**Q.** What about the “Fold Change Wk 3 ZPT vs Non-Dan Baseline” value of the same compound?
**A.** 0.32* fold

**Q.** What about the “Fold Change Wk 3 Sel vs Non-Dan Baseline” value of the same compound?
**A.** 0.17* fold

**Q.** What does the source list for `CCCCC/C=C\C/C=C\CCCCCCCCCCCC(=O)O` [docosadienoate (22:2n6), docosadienoate]?
**A.** Mean Values WEEK 3 TRT Sel [1]: 0.1554; Mean Values WEEK 3 TRT ZPT [2]: 0.3022; Fold Change Wk 3 Sel vs Dandruff Baseline: 0.12* fold; Fold Change Wk 3 ZPT vs Dandruff Baseline: 0.24* fold; Fold Change Wk 3 ZPT vs Non-Dan Baseline: 0.28* fold; Fold Change Wk 3 Sel vs Non-Dan Baseline: 0.14* fold

**Q.** `CC/C=C\C/C=C\C/C=C\CCCCCCCCCCCC(=O)O` [docosatrienoate (22:3n3), docosatrienoate] was tested. Which “Mean Values WEEK 3 TRT Sel” value [1] did it give?
**A.** 0.2735

**Q.** What about the “Mean Values WEEK 3 TRT ZPT” value [2] of the same compound?
**A.** 0.5705

**Q.** And the “Fold Change Wk 3 Sel vs Dandruff Baseline” value?
**A.** 0.13* fold

**Q.** What about the “Fold Change Wk 3 ZPT vs Dandruff Baseline” value of the same compound?
**A.** 0.26* fold

**Q.** What about the “Fold Change Wk 3 ZPT vs Non-Dan Baseline” value of the same compound?
**A.** 0.32 fold

**Q.** And the “Fold Change Wk 3 Sel vs Non-Dan Baseline” value?
**A.** 0.15* fold

**Q.** For `O=P(O)(O)OCC(O)CO` (stereo not shown) [glycerol 3-phosphate (G3P)], which “Mean Values WEEK 3 TRT Sel” value [1] is on record?
**A.** 0.8007

**Q.** What about the “Mean Values WEEK 3 TRT ZPT” value [2] of the same compound?
**A.** 0.5943

**Q.** Which results are given for `O=C(O)CCc1cnc[nH]1` [imidazole propionate]?
**A.** Mean Values WEEK 3 TRT ZPT [3]: 0.8095; Mean Values WEEK 3 TRT Sel [4]: 0.7836

**Q.** What does the source list for `CC(C)CCCCCCCCCCCCC(=O)O` [isopalmitic acid]?
**A.** Mean Values WEEK 3 TRT Sel [1]: 0.3034; Mean Values WEEK 3 TRT ZPT [2]: 0.5169; Fold Change Wk 3 Sel vs Dandruff Baseline: 0.23* fold; Fold Change Wk 3 ZPT vs Dandruff Baseline: 0.41* fold; Fold Change Wk 3 ZPT vs Non-Dan Baseline: 0.41* fold; Fold Change Wk 3 Sel vs Non-Dan Baseline: 0.24* fold

**Q.** `CCCCC/C=C\C/C=C\CCCCCCCC(=O)O` [linoleate (18:2n6), linoleate] was tested. Which “reduction / decrease of metabolite level vs dandruff baseline” value did it give?
**A.** 82%

**Q.** What about the “decrease of metabolite level vs dandruff baseline” value of the same compound?
**A.** 78%

**Q.** With `CCCCCCCCCCCCCCCCC(=O)O` [margarate (17:0), margarate] as the compound, how does the “Mean Values WEEK 3 TRT Sel” value [1] read?
**A.** 0.3903

**Q.** And the “Mean Values WEEK 3 TRT ZPT” value [2]?
**A.** 0.6953

**Q.** And the “Fold Change Wk 3 Sel vs Dandruff Baseline” value?
**A.** 0.31* fold

**Q.** What about the “Fold Change Wk 3 ZPT vs Dandruff Baseline” value of the same compound?
**A.** 0.6*** fold

**Q.** What about the “Fold Change Wk 3 ZPT vs Non-Dan Baseline” value of the same compound?
**A.** 0.45* fold

**Q.** And the “Fold Change Wk 3 Sel vs Non-Dan Baseline” value?
**A.** 0.25* fold

**Q.** How did the “Mean Values WEEK 3 TRT Sel” value [1] turn out when `CCCCCCCCCCCCCCCCCCC(=O)O` [nonadecanoate (19:0), nonadecanoate] was run?
**A.** 0.3608

**Q.** What about the “Mean Values WEEK 3 TRT ZPT” value [2] of the same compound?
**A.** 0.5421

**Q.** What about the “Fold Change Wk 3 Sel vs Dandruff Baseline” value of the same compound?
**A.** 0.29* fold

**Q.** And the “Fold Change Wk 3 ZPT vs Dandruff Baseline” value?
**A.** 0.47* fold

**Q.** And the “Fold Change Wk 3 ZPT vs Non-Dan Baseline” value?
**A.** 0.39* fold

**Q.** What about the “Fold Change Wk 3 Sel vs Non-Dan Baseline” value of the same compound?
**A.** 0.26* fold

**Q.** What does the source list for `CCCCCCCC/C=C\CCCCCCCC(=O)NCCO` [oleic ethanolamide]?
**A.** Mean Values WEEK 3 TRT Sel [1]: 1.1213; Mean Values WEEK 3 TRT ZPT [2]: 1.5447

**Q.** Which “Mean Values WEEK 3 TRT Sel” value [1] does the source give for `CCCCCCCCCCCCCCC(=O)O` [pentadecanoate (15:0), pentadecanoate] here?
**A.** 0.3057

**Q.** And the “Mean Values WEEK 3 TRT ZPT” value [2]?
**A.** 0.5867

**Q.** What about the “Fold Change Wk 3 Sel vs Dandruff Baseline” value of the same compound?
**A.** 0.19* fold

**Q.** And the “Fold Change Wk 3 ZPT vs Dandruff Baseline” value?
**A.** 0.4* fold

**Q.** What about the “Fold Change Wk 3 ZPT vs Non-Dan Baseline” value of the same compound?
**A.** 0.37* fold

**Q.** What about the “Fold Change Wk 3 Sel vs Non-Dan Baseline” value of the same compound?
**A.** 0.19* fold

**Q.** How did the “Mean Values WEEK 3 TRT Sel” value [1] turn out when `CC[C@H](C)[C@H](NC(=O)[C@@H](N)CO)C(=O)O` [serylisoleucine*] (H-Ser-Ile-OH) was run?
**A.** 1.1161

**Q.** What about the “Mean Values WEEK 3 TRT ZPT” value [2] of the same compound?
**A.** 0.9496

**Q.** `O=C(O)/C=C/c1cnc[nH]1` [trans-urocanate] was tested. Which “Fold Change Wk 3 Sel vs Dandruff Baseline” value did it give?
**A.** 0.74* fold

**Q.** And the “Fold Change Wk 3 ZPT vs Dandruff Baseline” value?
**A.** 0.87 fold

**Q.** And the “Fold Change Wk 3 ZPT vs Non-Dan Baseline” value?
**A.** 1.41 fold

**Q.** And the “Fold Change Wk 3 Sel vs Non-Dan Baseline” value?
**A.** 1.21 fold

**Q.** And the “Mean Values WEEK 3 TRT ZPT” value [3]?
**A.** 1.0096

**Q.** What about the “Mean Values WEEK 3 TRT Sel” value [4] of the same compound?
**A.** 0.8661

**Q.** How did the “Mean Values WEEK 3 TRT Sel” value [1] turn out when “Eicosenoate [Eicosenoate (20:1n9 or 11)]” was run?
**A.** 0.202

**Q.** What about the “Mean Values WEEK 3 TRT ZPT” value [2] of the same compound?
**A.** 0.3561

**Q.** dimethylarginine (SDMA + ADMA) was tested. Which “Mean Values WEEK 3 TRT Sel” value [1] did it give?
**A.** 0.8338

**Q.** And the “Mean Values WEEK 3 TRT ZPT” value [2]?
**A.** 1.0243

**Q.** How did the “Mean Values WEEK 3 TRT ZPT” value [2] turn out when “linolenate [alpha or gamma; (18:3n3 or 6)]” was run?
**A.** 0.8941

From patent US20140271930A1, “NONINVASIVE METHOD FOR MEASURING METABOLITES FOR SKIN HEALTH” (priority 2013, published 2014)
